From patent US20230098254A1, “SCUTELLARIAE RADIX COMPOUNDS AND USE THEREOF FOR INHIBITING OXIDATIVE PHOSPHORYLATION PATHWAY OF MITOCHONDRIA” (priority 2020, published 2023)
Where two headings read alike, the source gives them in different places.

What was measured:
G-402 = assay: Cell viability CellTiter-Glo, G-402; assay type: cell-based; details: Homo sapiens; G-402, kidney cancer
Experimental: (§1) Cell viability was measured by using the Promega CellTiter-Glo kit, the kit reflected cell viability by directly measuring intracellular ATP content. Different cancer cells were cultured in culture medium, and the 50% inhibitory concentration IC50 of the compound SJ2858 was measured by Promega CellTiter-Glo kit. The name source and culture condition of each tumor cell line were as follows:
Cell line G-402 (ATCC, No. CRL-1440) was cultured in McCoy's 5a medium containing 10% fetal bovine serum (+P/S);

SU-DHL-2 = assay: Cell viability CellTiter-Glo, SU-DHL-2; assay type: cell-based; details: Homo sapiens; SU-DHL-2, lymphoma
Experimental: as §1
Cell line SU-DHL-2 (ATCC, No. CRL-2956) was cultured in RPMI1640 medium containing 10% fetal bovine serum (+P/S);

ACHN = assay: Cell viability CellTiter-Glo, ACHN; assay type: cell-based; details: Homo sapiens, kidney cancer
Experimental: as §1
Cell line ACHN (ATCC, No. CRL-1611) was cultured in EMEM medium containing 10% fetal bovine serum (+P/S);

COLO 320HSR = assay: Cell viability CellTiter-Glo, COLO 320HSR; assay type: cell-based; details: Homo sapiens, intestinal cancer
Experimental: as §1
Cell line COLO 320HSR (ATCC, No. CCL-220.1) was cultured in RPMI1640 medium containing 10% fetal bovine serum (+P/S);

H9 = assay: Cell viability CellTiter-Glo, H9; assay type: cell-based; details: Homo sapiens; H9, lymphoma
Experimental: as §1
Cell line H9 (ATCC, No. HTB-176) was cultured in RPMI1640 medium containing 10% fetal bovine serum (+P/S);

NCI-H82 cell = assay: Cell viability, Promega CellTiter-Glo, NCI-H82 cell; assay type: cell-based; details: Homo sapiens, NCI-H82; read-out: IC50 of cell viability inhibition
Experimental: (§2) Cell viability was detected by using the Promega CellTiter-Glo kit, the kit reflected cell viability by directly measuring intracellular ATP content. […] Daoy cell and NCI-H82 cell were cultured in DMEM containing 10% FBS (plus p/s).

Daoy cell = assay: Cell viability, Promega CellTiter-Glo, Daoy cell; assay type: cell-based, human; details: Homo sapiens, Daoy, read-out: IC50 of cell viability inhibition
Experimental: as §2

OCI-AML-5 = assay: Cell viability CellTiter-Glo, OCI-AML-5; assay type: cell-based; details: Homo sapiens; OCI-AML-5, leukemia
Experimental: as §1
Cell line OCI-AML-5 (DSMZ, No. ACC-247) was cultured in alpha-MEM medium containing 20% fetal bovine serum and 20% volume fraction of 5637 cell line adjusted medium (+P/S);

NCI-H1048 = assay: Cell viability CellTiter-Glo, NCI-H1048; assay type: cell-based; details: Homo sapiens; NCI-H1048, lung cancer
Experimental: as §1
Cell line NCI-H1048 (ATCC, No. CRL-5853) was cultured in HITES medium containing 5% fetal bovine serum (+P/S);

HCC1806 = assay: Cell viability CellTiter-Glo, HCC1806; assay type: cell-based; details: Homo sapiens; HCC1806, breast cancer
Experimental: as §1
Cell line HCC1806 (ATCC, No. CRL-2335) was cultured in RPMI1640 medium containing 10% fetal bovine serum (+P/S);

BT-549 = assay: Cell viability CellTiter-Glo, BT-549; assay type: cell-based; details: Homo sapiens; BT-549, breast cancer
Experimental: as §1
Cell line BT-549 (ATCC, No. HTB-122) was cultured in RPMI1640 medium containing 10% fetal bovine serum and 0.023 IU/ml human insulin (+P/S);

22RV1 = assay: Cell viability CellTiter-Glo, 22RV1; assay type: cell-based; details: Homo sapiens; 22RV1, prostate cancer
Experimental: as §1
Cell line 22RV1 (ATCC, No. CRL-2505) was cultured in RPMI1640 medium containing 10% fetal bovine serum (+P/S);

SNU-449 = assay: Cell viability CellTiter-Glo, SNU-449; assay type: cell-based; details: Homo sapiens; SNU-449, liver cancer
Experimental: as §1
Cell line SNU-449 (ATCC, No. CRL-2234) was cultured in RPMI1640 medium containing 10% fetal bovine serum (+P/S);

HH = assay: Cell viability CellTiter-Glo, HH; assay type: cell-based; details: Homo sapiens, lymphoma
Experimental: as §1
Cell line HH (ATCC, No. CRL-2105) was cultured in RPMI1640 medium containing 10% fetal bovine serum (+P/S);

HCC15 = assay: Cell viability CellTiter-Glo, HCC15; assay type: cell-based; details: HCC15, lung cancer
Experimental: as §1
Cell line HCC15 (KCLB, No. 70015) was cultured in RPMI1640 medium containing 10% fetal bovine serum (+P/S);

Gp2D = assay: Cell viability CellTiter-Glo, Gp2D; assay type: cell-based; details: intestinal cancer
Experimental: as §1
Cell line Gp2D (ECACC, No. 95090714) was cultured in DMEM medium containing 10% fetal bovine serum (+P/S);

OCI-AML-4 = assay: Cell viability CellTiter-Glo, OCI-AML-4; assay type: cell-based; details: OCI-AML-4, leukemia
Experimental: as §1
Cell line OCI-AML-4 (DSMZ, No. ACC-729) was cultured in alpha-MEM medium containing 20% fetal bovine serum and 20% volume fraction of 5637 cell line adjusted medium (+P/S);

MIA PaCa-2 = assay: Cell viability CellTiter-Glo, MIA PaCa-2; assay type: cell-based; details: Homo sapiens; MIA PaCa-2, pancreatic cancer
Experimental: as §1
Cell line MIA PaCa-2 (ATCC, No. CRL-1420) was cultured in DMEM medium containing 10% fetal bovine serum (+P/S);

NCI-H1155 = assay: Cell viability CellTiter-Glo, NCI-H1155; assay type: cell-based; details: Homo sapiens; NCI-H1155, lung cancer
Experimental: as §1
Cell line NCI-H1155 (ATCC, No. CRL-5818) was cultured in serum-free ACL-4 medium (+P/S);

GB-1 = assay: Cell viability CellTiter-Glo, GB-1; assay type: cell-based; details: Homo sapiens; GB-1, brain cancer
Experimental: as §1
Cell line GB-1 (JCRB, No. IFO50489) was cultured in DMEM medium containing 10% fetal bovine serum (+P/S);

G-401 = assay: Cell viability CellTiter-Glo, G-401; assay type: cell-based; details: Homo sapiens; G-401, kidney cancer
Experimental: as §1
Cell line G-401 (ATCC, No. CRL-1441) was cultured in McCoy's 5a medium containing 10% fetal bovine serum (+P/S);

GAK = assay: Cell viability CellTiter-Glo, GAK; assay type: cell-based; details: melanoma
Experimental: as §1
Cell line GAK (JCRB, No. JCRB0180) was cultured in Ham's F12 medium containing 20% fetal bovine serum (+P/S);

In the case of `O=c1cc(-c2ccccc2)oc2cc(O)c(O)c(O)c12` [Compound SJ2858, baicalein], the IC50 (G-402) is reported as 4.2 µM, the IC50 (SU-DHL-2) is reported as 6.2 µM and the IC50 (ACHN) is reported as 17.7 µM. It also gave an IC50 (COLO 320HSR) of 17.8 µM, an IC50 (H9) of 19 µM and an IC50 (NCI-H82 cell) of 15.6 µM. The IC50 (Daoy cell; Daoy cell with CSA (1.5 μM mPTP inhibitor)) was 13.2 µM, the IC50 (Daoy cell; Daoy cell without CSA (active mPTP)) was 35.2 µM and the IC50 (OCI-AML-5) was 45.1 µM. The IC50 (NCI-H1048) was 15 µM, the IC50 (HCC1806) was 25.7 µM and the IC50 (BT-549) was 18.1 µM. The IC50 (22RV1) was 25.9 µM, the IC50 (SNU-449) was 26.9 µM and the IC50 (HH) was 34 µM. It also gave an IC50 (HCC15) of 18.9 µM, an IC50 (Gp2D) of 14.9 µM and an IC50 (OCI-AML-4) of 24.6 µM. It also gave an IC50 (MIA PaCa-2) of 19.7 µM, an IC50 (NCI-H1155) of 19.6 µM and an IC50 (GB-1) of 12.4 µM. It also gave an IC50 (G-401) of 12.3 µM and an IC50 (GAK) of 23.1 µM.
